Values belong to the molecule of their own block, whether it stands above or below them.
What was measured:
G9a [1] = molecular target: T1, G9a (Homo sapiens, UniProt Q96KQ7); parameters: method as in PMID 31141392, PMID 31276898, PMID 29890830, PMID 33661013, PMID 30753076; conditions: previously reported, dependent on the assay conditions used; cited from earlier work
T1 construct: purchased BPS Bioscience 52051
T1 sequence (Q96KQ7 1-1210): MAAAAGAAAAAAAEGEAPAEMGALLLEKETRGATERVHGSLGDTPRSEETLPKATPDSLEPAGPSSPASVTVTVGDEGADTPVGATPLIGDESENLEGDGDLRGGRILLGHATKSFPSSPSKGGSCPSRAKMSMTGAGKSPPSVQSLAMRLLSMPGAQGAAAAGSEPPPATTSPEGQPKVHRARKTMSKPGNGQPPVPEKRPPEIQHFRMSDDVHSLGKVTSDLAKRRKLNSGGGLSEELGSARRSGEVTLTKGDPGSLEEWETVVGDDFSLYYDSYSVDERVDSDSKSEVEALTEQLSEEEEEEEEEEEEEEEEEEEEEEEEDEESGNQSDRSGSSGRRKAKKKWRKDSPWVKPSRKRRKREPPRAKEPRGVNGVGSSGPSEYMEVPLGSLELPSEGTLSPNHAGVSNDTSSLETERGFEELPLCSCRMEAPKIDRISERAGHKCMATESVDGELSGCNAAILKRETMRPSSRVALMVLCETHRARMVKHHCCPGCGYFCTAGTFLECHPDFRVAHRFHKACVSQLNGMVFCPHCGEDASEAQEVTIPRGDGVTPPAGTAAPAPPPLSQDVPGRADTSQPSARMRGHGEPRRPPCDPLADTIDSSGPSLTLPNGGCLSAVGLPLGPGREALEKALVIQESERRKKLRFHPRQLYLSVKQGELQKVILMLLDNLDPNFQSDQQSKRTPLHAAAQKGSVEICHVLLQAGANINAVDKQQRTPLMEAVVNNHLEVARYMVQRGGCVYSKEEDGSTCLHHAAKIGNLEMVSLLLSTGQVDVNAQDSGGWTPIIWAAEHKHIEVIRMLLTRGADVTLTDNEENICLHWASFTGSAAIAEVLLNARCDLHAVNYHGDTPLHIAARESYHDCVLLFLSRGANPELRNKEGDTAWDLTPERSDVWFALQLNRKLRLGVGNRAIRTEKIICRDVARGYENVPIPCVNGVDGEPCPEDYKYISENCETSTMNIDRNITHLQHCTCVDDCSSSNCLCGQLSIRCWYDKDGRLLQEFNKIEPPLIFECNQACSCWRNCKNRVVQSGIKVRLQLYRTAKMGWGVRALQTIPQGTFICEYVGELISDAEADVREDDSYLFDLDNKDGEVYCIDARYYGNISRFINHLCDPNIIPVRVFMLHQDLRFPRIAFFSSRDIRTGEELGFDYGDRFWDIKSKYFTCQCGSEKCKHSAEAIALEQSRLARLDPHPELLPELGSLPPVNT

PAMPA‐BBB assay = format: in vitro ADME; conditions: pig, PAMPA; PBS:EtOH (70 : 30); values as printed in text; read-out: in vitro permeability (Pe), PAMPA‐BBB
Method: To evaluate the brain penetration of the different compounds, a parallel artificial membrane permeation assay for BBB was used, following the method described by Di et al..[33] The in vitro Pe of fourteen commercial drugs through lipid extract of porcine brain membrane together with the test compounds were determined. Commercial drugs and assayed compounds were tested using a mixture of PBS:EtOH (70 : 30).

[2] = test system: Aβ deposits in CL2006 strain; test: Thioflavin‐S staining of Aβ aggregation; format: in vivo, Caenorhabditis elegans; conditions: head region, after 5 days of treatment, compared to the vehicle group
Method: The transgenic AD strain CL2006 is characterized by the expression of human Aβ1‐42 under the control of a muscle‐specific promoter, making it suitable to answer this objective in our work. As we mentioned above, UNC0638 was used as a positive control. […] After 5 days of treatment, adult CL2006 C. elegans were fixed in 4 % Paraformaldehyde/Phosphate‐buffered saline (PBS) (pH 7.5), for 24 hours at 4 °C. […] On the last day, nematodes were stained with 0.125 % Thioflavin‐S (ThS) (Sigma, CAS# 1326–12‐1) in 50 % ethanol (EtOH) for 2 min, destained in 50 % EtOH for 2 min, washed 3 times with PBS. To prepare the glass slide for microscopy, approximately 10 μL volume was transferred on a droplet of Fluoromount G (Electron Microscopy Sciences, CAT#17984‐25). Fluorescence images were acquired using a 20 Å∼ objective of a fluorescence microscope. Aβ in the head region of worms were quantified by counting the number of Th−S positive spots using ImageJ and were expressed as Aβ deposits/anterior area.

G9a [3] = molecular target: T1, G9a; test: G9a Homogeneous Assay Kit (AlphaLISA) G9a inhibition; format: biochemical
Method: The percentages of G9a activity for the 10 selected molecules were determined at 100 μM S‐adenosylmethionine (SAM) and peptide substrate using AlphaLISA® technology. These percentages were used to calculate the IC50.
G9a inhibitors were serially diluted between 5 nM and 0.001 nM in 100 % DMSO (Sigma, St. Louis, USA). Then, respective concentrations were subsequently diluted in MilliQ purified water to reach a final concentration ranging between 50 and 0.001 μM in 1 % DMSO in well.
Briefly, a sample containing the G9a enzyme is incubated with the biotinylated substrate plus inhibitor solution for two hours. Next, acceptor beads and primary antibody is added, followed by donor beads. Finally, the Alpha‐counts were read using an AlphaScreen microplate reader. The experiment was run per triplicate. G9aactivity(%)=(C-Cb)/(Ct-Cb)x100
Ct=The chemiluminescence reading in the absence of the compound. The data set here is defined as 100 % activity in the absence of the compound.
Cb=The chemiluminescence reading in absence of enzyme. The data set here is defined as 0 % activity in the absence of the enzyme.
C=The chemiluminescence reading in the presence of the compound.
Data analysis was conducted using GraphPad Prism ver. 9 statistical software. The statistical outliers were identified with Grubb's test and excluded from the analysis. Group comparisons were carried out with a One‐way Analysis of variance (ANOVA), followed by the Dunnett post hoc test. In some cases, comparison between groups was also performed by unpaired t‐test or One‐way ANOVA, followed by Fisher's LSD post hoc test. For the calculation of IC50, non‐linear regressions were performed. […] Values are shown as the mean ± Standard error of the mean (SEM) of at least n=3. Statistical significance was considered when p values were <0.05.

Compound: O=C1c2ccccc2-c2onc3c(N4CCCC4)cc(NCCN4CCCC4)c1c23 [Compound 7]
IC50 (G9a [1]): 1.2 µM

Compound: COc1cc2c(cc1OC)-c1c(C)c3cc(OC)c(OC)cc3c[n+]1CC2 [Compound 8, pseudodehydrocorydaline]
IC50 (G9a [1]): 16.3 µM

Papp (PAMPA‐BBB assay): 6.2 ×10⁻⁶ cm/s
% G9a activity (G9a [3]; 0.0001 µM, first data set of Table S2): 36.4%
% G9a activity (G9a [3]; 0.0001 µM, second data set of Table S2): 37.2%
% G9a activity (G9a [3]; 0.0001 µM, third data set of Table S2): 36.8%
% G9a activity (G9a [3]; 0.001 µM, first data set of Table S2): 34.1%
% G9a activity (G9a [3]; 0.001 µM, second data set of Table S2): 35.7%
% G9a activity (G9a [3]; 0.001 µM, third data set of Table S2): 34.9%
% G9a activity (G9a [3]; 0.01 µM, first data set of Table S2): 17.0%
% G9a activity (G9a [3]; 0.01 µM, second data set of Table S2): 15.3%
% G9a activity (G9a [3]; 0.01 µM, third data set of Table S2): 16.1%
% G9a activity (G9a [3]; 0.1 µM, first data set of Table S2): 7.9%
% G9a activity (G9a [3]; 0.1 µM, second data set of Table S2): 6.8%
% G9a activity (G9a [3]; 0.1 µM, third data set of Table S2): 7.0%
% G9a activity (G9a [3]; 1 µM, first data set of Table S2): 5.2%
% G9a activity (G9a [3]; 1 µM, second data set of Table S2): 5.8%
% G9a activity (G9a [3]; 1 µM, third data set of Table S2): 6.3%
% G9a activity (G9a [3]; 10 µM, first data set of Table S2): 1.9%
% G9a activity (G9a [3]; 10 µM, second data set of Table S2): 2.6%
% G9a activity (G9a [3]; 10 µM, third data set of Table S2): 1.9%
% G9a activity (G9a [3]; 50 µM, first data set of Table S2): 0.1%
% G9a activity (G9a [3]; 50 µM, second data set of Table S2): 0.7%
% G9a activity (G9a [3]; 50 µM, third data set of Table S2): 0.3%
Compound: COc1cc2c(NC3CCN(C(C)C)CC3)nc(C3CCCCC3)nc2cc1OCCCN1CCCC1 [UNC0638, reference compound]
reduction of Aβ deposition (Thioflavin S‐positive particles) [2]: approximately 25%
